For series [1], the system named is St. faecalis CN478. Put plainly: MIC against St. faecalis CN478 in vitro. The series is classed as cell-based. Particulars: Enterococcus faecalis, read-out: Minimum Inhibitory Concentration (MIC). The text has this:
(§1) The compounds of the present invention were subjected to standard tests in order to determine the minimum inhibitory concentration in μg/ml needed to inhibit a range of bacterial microorganisms in-vitro.

In series [2] the test system is St. agalactiae CN1143. Put plainly: MIC against St. agalactiae CN1143 in vitro. The series is classed as cell-based. Particulars: Streptococcus agalactiae, read-out: Minimum Inhibitory Concentration (MIC).
Description: as §1

In series [3] the test system is Staph. aureus CN491. In words: MIC against Staph. aureus CN491 in vitro. Particulars: Staphylococcus aureus, read-out: Minimum Inhibitory Concentration (MIC). The series is classed as cell-based.
Description: as §1

For series [4], the system named is Vibrio cholerae ATCC14035. Put plainly: MIC against Vibrio cholerae ATCC14035 in vitro. Particulars: ATCC14035, read-out: Minimum Inhibitory Concentration (MIC). The series is classed as cell-based.
Description: as §1

Series [5] relates to Esch. coli CN314. Put plainly: MIC against Esch. coli CN314 in vitro. In kind it is cell-based. Particulars: Escherichia coli, read-out: Minimum Inhibitory Concentration (MIC).
Description: as §1

Series [6] concerns Pr. mirabilis S2409. In words: MIC against Pr. mirabilis S2409 in vitro. The series is classed as cell-based. Particulars: Proteus mirabilis, read-out: Minimum Inhibitory Concentration (MIC).
Description: as §1

Series [7] deals with Meningococci. In words: MIC against Meningococci in vitro. Particulars: Meningococci (average 5 strains); read-out: Minimum Inhibitory Concentration (MIC). The series is classed as cell-based.
Description: as §1

The subject of series [8] is Gonococci. In words: MIC against Gonococci in vitro. In kind it is cell-based. Particulars: Gonococci (average 17 strains); read-out: Minimum Inhibitory Concentration (MIC).
Description: as §1

For series [9], the system named is B. fragilis. In words: MIC against B. fragilis in vitro. The series is classed as cell-based. Particulars: Bacteroides fragilis; B. fragilis (average 3-10 strains); read-out: Minimum Inhibitory Concentration (MIC).
Description: as §1

Series [10] in a line: Acute toxicity in mouse. Particulars: in vivo, ip; i.p. mouse.
For series [11], the system named is Staph. aureus. In words: MIC vs Staph. aureus (Table 2). In kind it is cell-based. Particulars: Staphylococcus aureus, strain not given.
Description: as §1

For series [12], the system named is Salmonella dublin. In words: Experimental salmonellosis in calves. In kind it is in vivo. Particulars: 1 mg/kg daily plus SDZ 20 mg/kg, 5 days from two days after infection; deaths/calves.
The test system of series [13] is aerobic bacteria. Particulars: general statement on trimethoprim; cited from earlier work.
In series [14] the test system is anaerobic bacteria. Particulars: general statement on trimethoprim; cited from earlier work.

In brackets after ≈: the same amount, converted by molar mass. Bounds are passed on as bounds.

On to `COc1cc(Cc2cnc(N)nc2N)c2c(c1OC)OC(C)C=C2` (centres unmarked) [Compound 4, 2,4-Diamino-5-(7,8-dimethoxy-2-methyl-2 --H--1-benzopyran-5-ylmethyl) pyrimidine lactate], for which the MIC in [1] was 0.01 µg/mL; in [2] it was 0.05 µg/mL; in [3], 0.05 µg/mL; in [4], 0.05 µg/mL; in series [5] it was 0.1 µg/mL; in series [6], 5 µg/mL. The results for the MIC in [7], in series [8] and in [9] were 2.8 µg/mL, 4.6 µg/mL and 0.48 µg/mL, respectively.
As a reminder, the LD50 is the dose expected to kill half of the subjects tested. A high value points to lower toxicity. With `COc1cc(Cc2cnc(N)nc2N)c2cccnc2c1N.Cl.Cl` [Compound 8, 2,4-Diamino-5-(8-amino-7-methoxy-5-quinolylmethyl)-pyrimidine dihydrochloride], the MIC in series [1] was found to be 0.1 µg/mL; in [2], 0.1 µg/mL; in [3] it was 0.1 µg/mL; in series [4], 0.05 µg/mL; in [5], 0.1 µg/mL; in series [6] it was 1 µg/mL. The results for the MIC in [7], in series [8] and in series [9] were 3.7 µg/mL, 11.1 µg/mL and 5.2 µg/mL, respectively. The same compound displayed an LD50 in series [10] of 500 mg/kg.
With `Cc1cc(Cc2cnc(N)nc2N)c2cccnc2c1N(C)C.Cl.Cl` [Compound 9, 2,4-Diamino-5-(8-dimethylamino-7-methyl-5-quinolylmethyl)pyrimidine dihydrochloride], the MIC in series [1] was 0.05 µg/mL; in series [2] it was 0.5 µg/mL; in [3], 0.5 µg/mL; in series [4], 0.5 µg/mL; in [5], 0.1 µg/mL; in series [6], 5 µg/mL. The MIC was more than 25 µg/mL in [7], more than 25 µg/mL in series [8] and 7.8 µg/mL in [9].
For `COc1cc(Cc2cnc(N)nc2N)c2cccnc2c1OC` [Compound 24, 2,4-Diamino-5-(7,8-dimethoxy-5-quinolylmethyl)pyrimidine], the MIC in [11] stood at 0.1 µg/mL (≈ 0.321 µM).
As to `COc1cc(Cc2cnc(N)nc2N)c2ccncc2c1N.Cl.Cl` [Compound 25, 2,4-Diamino-5-(8-amino-7-methoxy-5-isoquinolylmethyl)pyrimidine dihydrochloride], the MIC in series [1] worked out at 0.05 µg/mL; in series [2], 0.05 µg/mL; in series [3], 0.05 µg/mL; in series [4], 0.05 µg/mL; in series [5] it was 0.05 µg/mL; in [6] it was 5 µg/mL. Further, the results for the MIC in series [7], in [8] and in [9] were 3.1 µg/mL, 8.1 µg/mL and 2.6 µg/mL, respectively.
On to `CCOc1cc(Cc2cnc(N)nc2N)c2cccnc2c1N` [Compound 26, 2,4-Diamino-5-(8-amino-7-ethoxy-5-quinolylmethyl)pyrimidine], for which the MIC in series [11] was 0.05 µg/mL (≈ 0.161 µM).
On the same count and under the same terms, as for `C=CCc1cc(Cc2cnc(N)nc2N)c2cccnc2c1OCCOC` [Compound 27, 2,4-Diamino-5-(7-allyl-8-(2-methoxyethoxy)-5-quinolylmethyl)pyrimidine], the figure is 0.1 µg/mL (≈ 0.274 µM).
In series [11], `Cl.Cl.Nc1ncc(Cc2cc(Cl)c(N)c3ncccc23)c(N)n1` [Compound 28, 2,4-Diamino-5-(8-amino-7-chloro-5-quinolylmethyl)pyrimidine dihydrochloride] registered an MIC of 0.1 µg/mL.
The same measure, in the same setting: the figure for `COc1cc(Cc2cnc(N)nc2N)c2cccnc2c1` [Compound 29, 2,4-Diamino-5-(7-methoxy-5-quinolylmethyl)pyridimine] is 0.5 µg/mL (≈ 1.78 µM).
In turn, `CSc1cc(Cc2cnc(N)nc2N)c2cccnc2c1N.Cl.Cl` [Compound 30, 2,4-Diamino-5-(8-amino-7-methylthio-5-quinolylmethyl)pyrimidine dihydrochloride] yielded an MIC in [11] of 0.1 µg/mL.
Regarding `COc1cc(Cc2cnc(N)nc2N)c2cccnc2c1SC` [Compound 31, 2,4-Diamino-5-(7-methoxy-8-methylthio-5-quinolylmethyl)pyrimidine], the MIC is 0.05 µg/mL (≈ 0.153 µM) in series [1]; 0.5 µg/mL (≈ 1.53 µM) in [2]; 0.05 µg/mL (≈ 0.153 µM) in series [3]; 0.05 µg/mL (≈ 0.153 µM) in series [4]; 0.1 µg/mL (≈ 0.305 µM) in series [5]; 5 µg/mL (≈ 15.3 µM) in series [6]. For the same compound, the MIC was found to be 14.4 µg/mL (≈ 44 µM) in series [7], 34.4 µg/mL (≈ 105 µM) in series [8] and 3.1 µg/mL (≈ 9.47 µM) in series [9].
Compound `Cc1cc(Cc2cnc(N)nc2N)c2ncccc2c1N` [Compound 34, 2,4-Diamino-5-(5-amino-6-methyl-8-quinolylmethyl)pyrimidine] had an MIC in series [11] of 5 µg/mL (≈ 17.8 µM).
Turning to `COc1cc(Cc2cnc(N)nc2N)c2ncccc2c1N` [Compound 35, 2,4-Diamino-5-(5-amino-6-methoxy-8-quinolylmethyl)pyrimidine], the MIC in series [11] worked out at 0.5 µg/mL (≈ 1.69 µM).
For `C=CCc1cc(Cc2cnc(N)nc2N)c2c(c1OC)NCCC2` [Compound 36, 5-(7-allyl-8-methoxy-5-(1,2,3,4-tetrahydro-quinolylmethyl))-2,4-diaminopyrimidine], the MIC in [11] stood at 0.05 µg/mL (≈ 0.154 µM).
As to `COc1cc(Cc2cnc(N)nc2N)cc(OC)c1OC` [TMP, 2,4-diamino-5-(3,4,5-trimethoxybenzyl)pyrimidine, reference compound], the MIC in series [1] was 0.1 µg/mL (≈ 0.344 µM); in series [2], 0.5 µg/mL (≈ 1.72 µM); in series [3], 0.5 µg/mL (≈ 1.72 µM); in series [4] it was 0.5 µg/mL (≈ 1.72 µM); in series [5] it was 0.05 µg/mL (≈ 0.172 µM); in series [6], 5 µg/mL (≈ 17.2 µM). The MIC in series [7] was found to be 18 µg/mL (≈ 62 µM); in [8] it was 37.1 µg/mL (≈ 128 µM); in series [9], 4 µg/mL (≈ 13.8 µM); in [11], 0.5 µg/mL (≈ 1.72 µM). Besides, the Mortality in [12] is recorded as 2/7. The “level of activity against aerobic bacteria” value in [13] is reported as “excellent level of activity against most aerobic bacteria”. Further, in [14], the “level of activity against anaerobic bacteria” value was “activity against anaerobic bacteria is less impressive”.

These data come from patent US4587342A, “2,4-diamino-(substituted-benzopyran(quinolyl,isoquinoly)methyl)pyrimidine s useful as antibacterials” (priority 1980, dated 1986).
